Assay results published in patent US9145351B2, “Azole derivatives, methods for producing the same, intermediate thereof, agro-horticultural agents” (KUREHA CORPORATION, priority 2009, dated 2015).
Read-outs that look alike come from different tables or passages of the source.

Assays:
Assay type in all cases: cell-based
Alternaria alternata = experiment: Plate medium fungicidal assay, Alternaria blotch A.m (Experimental Example 5); settings: Alternaria alternata
Experimental: In this Experimental Example, the fungicidal effects of the inventive compounds on various phytopathogenic fungi for plants and hazardous microorganism for industrial materials were examined by the methods described below. Each inventive compound was dissolved in 2 ml of dimethyl sulfoxide. 0.6 ml of this solution was added to 60 nil of a PDA medium (potato dextrose agar medium) at about 60 degrees C., which was mixed thoroughly in a 100-ml conical flask, and poured into a dish, where it was solidified, thereby obtaining a plate medium containing the inventive compound at 50 mg/L and 5 mg/L. On the other hand, a subject microorganism previously cultured on a plate medium was cut out using a cork borer whose diameter was 4 mm, and inoculated to the test compound-containing plate medium described above. […] The growth degree of the microorganism on the test compound-containing plate medium thus observed was compared with the growth degree of the microorganism in the untreated group, and % mycelial growth inhibition was calculated by the following equation. R=100(dc−dt)/dc wherein R=% mycelial extension inhibition, dc=flora diameter in untreated plate, dt=flora diameter in treated plate. The results obtained as described above were evaluated as one of the 5 grades according to the following criteria. […] Alternaria blotch (Alternaria alternata) A.m

Aureobasidium sp. = experiment: Plate medium assay, industrial material deteriorating microorganism, Aureobasidium (Experimental Example 5); settings: treatment at 50 mg/l, PDA plate medium, read-out: growth inhibition grade
Experimental: (§1) In this Experimental Example, the fungicidal effects of the inventive compounds on various phytopathogenic fungi for plants and hazardous microorganism for industrial materials were examined by the methods described below. Each inventive compound was dissolved in 2 ml of dimethyl sulfoxide. 0.6 ml of this solution was added to 60 nil of a PDA medium (potato dextrose agar medium) at about 60 degrees C., which was mixed thoroughly in a 100-ml conical flask, and poured into a dish, where it was solidified, thereby obtaining a plate medium containing the inventive compound at 50 mg/L and 5 mg/L. On the other hand, a subject microorganism previously cultured on a plate medium was cut out using a cork borer whose diameter was 4 mm, and inoculated to the test compound-containing plate medium described above. […] The growth degree of the microorganism on the test compound-containing plate medium thus observed was compared with the growth degree of the microorganism in the untreated group, and % mycelial growth inhibition was calculated by the following equation. R=100(dc-dt)/dc wherein R=% mycelial extension inhibition, dc=flora diameter in untreated plate, dt=flora diameter in treated plate. The results obtained as described above were evaluated as one of the 5 grades according to the following criteria.

Coriolus versicolor = experiment: Plate medium assay, wood denaturing microorganism Kawaratake (Experimental Example 5); settings: Trametes versicolor; treatment at 50 mg/l, PDA plate medium; read-out: growth inhibition grade
Experimental: as §1

[1] = system: Pseudocercoporella herpotrichoides; experiment: Plate medium fungicidal assay, wheat eye spot P.h (Experimental Example 5)
Experimental: as §1, with “R=100(dc−dt)/dc” for “R=100(dc-dt)/dc”, “criteria. […] Wheat eye spot (Pseudocercoporella herpotrichoides) P.h” for “criteria.”

Fusarium oxysporum = experiment: Plate medium fungicidal assay, cucumber fusarium wilt F.c (Experimental Example 5); settings: Fusarium oxysporum
Experimental: as §1, with “R=100(dc−dt)/dc” for “R=100(dc-dt)/dc”, “criteria. […] Cucumber fusarium wilt (Fusarium oxysporum) F.c” for “criteria.”

Cladosporium sp. = experiment: Plate medium assay, industrial material deteriorating microorganism, Cladosporium (Experimental Example 5); settings: treatment at 50 mg/l, PDA plate medium, read-out: growth inhibition grade
Experimental: as §1

Curvularia sp. = experiment: Plate medium assay, industrial material deteriorating microorganism, Curvularia (Experimental Example 5); settings: treatment at 50 mg/l, PDA plate medium, read-out: growth inhibition grade
Experimental: as §1

Pyricularia oryzae = experiment: microbe, parasite or virus in culture; settings: Pyricularia oryzae
Rhynchosporium secalis = experiment: Plate medium fungicidal assay, barley leaf blotch R.sec (Experimental Example 5); settings: Rhynchosporium secalis
Experimental: as §1, with “R=100(dc−dt)/dc” for “R=100(dc-dt)/dc”, “criteria. […] Barley leaf blotch (Rhynchosporium secalis) R.sec” for “criteria.”

[2] = plate medium containing compound at 5 mg/L, read-out: Growth inhibition grade, A.m
[3] = plate medium containing compound at 50 mg/L, read-out: Growth inhibition grade, A.m
[4] = plate medium, 5 mg/L, read-out: growth inhibition grade A.m
[5] = plate medium, 50 mg/L, read-out: growth inhibition grade A.m
[6] = plate medium containing compound at 5 mg/L, read-out: Growth inhibition grade, P.h
[7] = plate medium containing compound at 50 mg/L, read-out: Growth inhibition grade, P.h
[8] = plate medium, 5 mg/L, read-out: growth inhibition grade P.h
[9] = plate medium, 50 mg/L, read-out: growth inhibition grade P.h
[10] = plate medium containing compound at 5 mg/L, read-out: Growth inhibition grade, F.c
[11] = plate medium containing compound at 50 mg/L, read-out: Growth inhibition grade, F.c
[12] = plate medium, 5 mg/L, read-out: growth inhibition grade F.c
[13] = plate medium, 50 mg/L, read-out: growth inhibition grade F.c
[14] = read-out: Growth inhibition grade, P.o
[15] = read-out: growth inhibition grade P.o
[16] = plate medium containing compound at 5 mg/L, read-out: Growth inhibition grade, R.sec
[17] = plate medium containing compound at 50 mg/L, read-out: Growth inhibition grade, R.sec
[18] = plate medium, 5 mg/L, read-out: growth inhibition grade R.sec
[19] = plate medium, 50 mg/L, read-out: growth inhibition grade R.sec

Row | Structure (SMILES) | inhibition at 5 µg/mL (Alternaria alternata; [2]) [%] | inhibition at 50 µg/mL (Alternaria alternata; [3]) [%] | inhibition at 5 µg/mL (Alternaria alternata; [4]) [%] | inhibition at 50 µg/mL (Alternaria alternata; [5]) [%] | inhibition at 50 µg/mL (Aureobasidium sp.) [%] | inhibition at 50 µg/mL (Coriolus versicolor) [%] | inhibition at 5 µg/mL [1, 6] [%] | inhibition at 50 µg/mL [1, 7] [%] | inhibition at 5 µg/mL [1, 8] [%] | inhibition at 50 µg/mL [1, 9] [%] | inhibition at 5 µg/mL (Fusarium oxysporum; [10]) [%] | inhibition at 50 µg/mL (Fusarium oxysporum; [11]) [%] | inhibition at 5 µg/mL (Fusarium oxysporum; [12]) [%] | inhibition at 50 µg/mL (Fusarium oxysporum; [13]) [%] | inhibition at 50 µg/mL (Cladosporium sp.) [%] | inhibition at 50 µg/mL (Curvularia sp.) [%] | inhibition at 5 µg/mL (Pyricularia oryzae; [15]) [%] | inhibition at 50 µg/mL (Pyricularia oryzae; [15]) [%] | inhibition at 5 µg/mL (Rhynchosporium secalis; [18]) [%] | inhibition at 50 µg/mL (Rhynchosporium secalis; [19]) [%] | also measured
1 | C[C@]1(CCl)CC[C@@H](Cc2ccc(Cl)cc2)[C@]1(O)Cn1cncn1 (racemic) [Compound I-1, (1RS,2SR,5SR)-5-(4-chlorobenzyl)-2-chloromethyl-2-methyl-1-(1H-1,2,4-triazol-1-ylmethyl)cyclopentanol] | > 80 | > 80 | > 80 | > 80 | 60 to 80 | 60 to 80 | > 80 | > 80 | > 80 | > 80 | > 80 | > 80 | > 80 | > 80 | 60 to 80 | 60 to 80 | > 80 | > 80 | > 80 | > 80 | inhibition at 5 µg/mL (Pyricularia oryzae; [14]): > 80%; inhibition at 50 µg/mL (Pyricularia oryzae; [14]): > 80%; inhibition at 5 µg/mL (Rhynchosporium secalis; [16]): > 80%; inhibition at 50 µg/mL (Rhynchosporium secalis; [17]): > 80%
2 | C[C@@]1(CCl)CC[C@H](Cc2ccc(Cl)cc2)[C@]1(O)Cn1cncn1 (racemic) [Compound I-401, (1RS,2RS,5RS)-5-(4-chlorobenzyl)-2-chloromethyl-2-methyl-1-[1,2,4]triazol-1-ylmethylcyclopentanol] | – | – | 60 to 80 | > 80 | 60 to 80 | 60 to 80 | – | – | > 80 | > 80 | – | – | > 80 | > 80 | 60 to 80 | 60 to 80 | > 80 | > 80 | > 80 | > 80 | –
3 | C[C@]1(CBr)CC[C@@H](Cc2ccccc2)[C@]1(O)Cn1cncn1 (racemic) [Compound I-602, (1RS,2SR,5SR)-2-bromomethyl-5-benzyl-2-methyl-1-(1H-1,2,4-triazol-1-ylmethyl)cyclopentanol] | – | – | 60 to 80 | > 80 | 60 to 80 | 60 to 80 | – | – | 40 to 60 | > 80 | – | – | > 80 | > 80 | 60 to 80 | 60 to 80 | > 80 | > 80 | > 80 | > 80 | –
4 | O[C@]1(Cn2cncn2)[C@@H](Cc2ccc(Cl)cc2)CC[C@@H]1C(F)(F)F (racemic) [Compound I-365, (1RS,2SR,5RS)-5-(4-chlorobenzyl)-2-trifluoromethyl-1-(1H-1,2,4-triazol-1-ylmethyl)cyclopentanol] | – | – | 20 to 40 | > 80 | 60 to 80 | 60 to 80 | – | – | 20 to 40 | > 80 | – | – | 20 to 40 | > 80 | 60 to 80 | 60 to 80 | < 20 | > 80 | 20 to 40 | > 80 | –
5 | C[C@]1(CCl)CC[C@@H](Cc2ccccc2)[C@]1(O)Cn1cncn1 (racemic) [Compound I-73, (1RS,2SR,5SR)-2-chloromethyl-5-benzyl-2-methyl-1-(1H-1,2,4-triazol-1-ylmethyl)cyclopentanol] | > 80 | > 80 | > 80 | > 80 | 60 to 80 | 60 to 80 | > 80 | > 80 | > 80 | > 80 | > 80 | > 80 | > 80 | > 80 | 60 to 80 | 60 to 80 | > 80 | > 80 | > 80 | > 80 | inhibition at 5 µg/mL (Pyricularia oryzae; [14]): > 80%; inhibition at 50 µg/mL (Pyricularia oryzae; [14]): > 80%; inhibition at 5 µg/mL (Rhynchosporium secalis; [16]): > 80%; inhibition at 50 µg/mL (Rhynchosporium secalis; [17]): > 80%
6 | C[C@]1(CCl)CC[C@@H](Cc2ccc(Cl)cc2)[C@]1(O)Cn1ccnc1 (racemic) [Compound I-244, (1RS,2SR,5SR)-5-(4-chlorobenzyl)-2-chloromethyl-2-methyl-1-imidazol-1-ylmethylcyclopentanol] | – | – | > 80 | > 80 | 60 to 80 | 60 to 80 | – | – | > 80 | > 80 | – | – | > 80 | > 80 | 60 to 80 | 60 to 80 | > 80 | > 80 | > 80 | > 80 | –
